# Measured values published in publication PMC11939078, “TAK-994 mechanistic investigation into drug-induced liver injury” (Toxicological Sciences, 2025).
# Tests used:
# [1] = test system: participants; assay: Phase I first-in-human study TAK-994-1001, safety; type: in vivo
# From the text: TAK-994 was considered to be well tolerated in phase I studies. […] Of 121 participants, 1 subject discontinued due to elevated alanine aminotransferase (ALT) with no other liver enzyme elevations. This event was considered mild in intensity and the participant recovered within 2 wk. No other clinically significant liver enzyme elevations were reported in phase I studies.
# [2] = test system: HepG2 cells; assay: HepG2 Glu/Gal 24-h cytotoxicity (mitochondrial toxicity); type: cell-based, human; conditions: glucose or galactose medium
# Protocol: (§1) Cytotoxicity of TAK-994 was evaluated in glucose or galactose medium after 24 h and in glucose medium after 72 h in HepG2 cells, with cryopreserved HepG2 cells thawed and seeded onto assay plates at 5,000 cells/well in glucose or galactose medium for the 24-h assay and at 2,500 cells/well in glucose medium for the 72-h assay. After ∼24 h of incubation at 37 °C in 5% CO2, the cells were incubated with test solutions under the same conditions for 24 h for the plate with 5,000 cells/well or 72 h for the plate with 2,500 cells/well. Cytotoxicity of TAK-994 was also assessed using HepG2 cells with CYP3A4 overexpression using a lentivirus vector. HepG2/CYP3A4 cells were incubated in media containing TAK-994 (0.09 to 200 μM), positive control aflatoxin B1 (0.04 to 80 μM), or 1.0% DMSO (negative control). In both cytotoxicity assays, adenosine triphosphate (ATP) content was assessed after incubation using a commercial luminescence assay (CellTiter-Glo; Promega Co., Ltd, WI, United States).
# HepG2 cells (American Type Culture Collection [ATCC, VA, USA]) were acclimated to Dulbecco's Modified Eagle Medium (DMEM; Thermo Fisher Scientific, MA, USA) with either high glucose or high galactose and containing 10% FBS for 1 week then cryopreserved. […] After the incubation, CellTiter-Glo® (Promega Co., Ltd., WI, USA) was added to the assay plates, cells were incubated for 30 minutes, and luminescence was recorded to measure the ATP content using an EnVision plate reader (PerkinElmer Co., Ltd., MA, USA). The test compound TAK-994 was evaluated at concentrations of 0.046, 0.14, 0.41, 1.2, 3.7, 11, 33, and 100 μM. Positive controls rotenone and staurosporine were purchased from FUJIFILM Wako Pure Chemical Corporation (Osaka, Japan) and evaluated at concentrations of 0.046, 0.14, 0.41, 1.2, 3.7, 11, 33, and 100 μM in DMSO (rotenone) or 0.0046, 0.014, 0.041, 0.12, 0.37, 1.1 , 3.3, and 10 μM in DMSO (staurosporine). […]
# [3] = test system: patients with narcolepsy; conditions: in vivo
# [4] = test system: HepG2 cells; assay: HepG2 72-h cytotoxicity assay (glucose medium, ATP content); type: cell-based, human
# Protocol: as §1
# HepG2 cells (American Type Culture Collection [ATCC, VA, USA]) were acclimated to Dulbecco's Modified Eagle Medium (DMEM; Thermo Fisher Scientific, MA, USA) with either high glucose or high galactose and containing 10% FBS for 1 week then cryopreserved. The cryopreserved HepG2 cells were thawed, cultured for 24 hours, then seeded at 5000 cells/well in glucose or galactose medium for the 24-hour assay and at 2500 cells/well in glucose medium for the 72-hour assay onto the assay plates. After approximately 24 hours of incubation at 37°C in 5% CO2, the cells were incubated with test solutions under the same conditions for 24 hours for the plate with 5000 cells/well or 72 hours for the plate with 2500 cells/well. After the incubation, CellTiter-Glo® (Promega Co., Ltd., WI, USA) was added to the assay plates, cells were incubated for 30 minutes, and luminescence was recorded to measure the ATP content using an EnVision plate reader (PerkinElmer Co., Ltd., MA, USA). The test compound TAK-994 was evaluated at concentrations of 0.046, 0.14, 0.41, 1.2, 3.7, 11, 33, and 100 μM. Positive controls rotenone and staurosporine were purchased from FUJIFILM Wako Pure Chemical Corporation (Osaka, Japan) and evaluated at concentrations of 0.046, 0.14, 0.41, 1.2, 3.7, 11, 33, and 100 μM in DMSO (rotenone) or 0.0046, 0.014, 0.041, 0.12, 0.37, 1.1 , 3.3, and 10 μM in DMSO (staurosporine). Two experiments were conducted at each concentration.
# Inhibition rate (%) = (1-mean of sample values / mean of Max values) × 100, where Max values = vehicle control.
# [5] = test system: HepG2; assay: Mito Stress Test (Seahorse, ECAR and OCR); type: cell-based, human; conditions: 3, 10, 30, and 100 μM
# [6] = test system: human hepatocytes; assay: Covalent binding of [14C]TAK-994 in human hepatocytes and CVB burden; type: in vitro ADME; conditions: for Daily CVB burden: most conservative values based on internal assay data (Table 1); for CVB burden: fa and fm assumed 1 (Table 3)
# Protocol: Covalent binding of TAK-994 was assessed by incubating [^14C]TAK-994 with human hepatocytes. The CVB level was determined by relating the total amount of radioactivity (pmol equivalent) to the protein concentration in each sample. Assessment of TAK-994 inhibition potential for the bile salt efflux pump (BSEP) was assessed by incubating [^3H(G)]taurocholic acid with TAK-994 (0 to 100 μM/l) or cyclosporin A after addition of 10 μl of membrane vesicles expressing BSEP or control membrane vesicles. Scintillation counts were assessed in two 5-min cycles.
# [^14C ]TAK-994 (10 μmol/L, supplied by Takeda Pharmaceutical Company Limited, Japan) was incubated with human hepatocytes (LIVERPOOL® 10-donor mixed gender, pooled, cryopreserved human hepatocytes [Lot No. ZOL, BioIVT]) as suspension culture in 24-well plates at 37°C under 5% CO2, humidified, for 0 or 2 hours. Seeding density of the cells was 3.0 × 10^5 viable cells/500 μL/well. A total of 3 replicates were assessed.
# The covalent-binding (CVB) level was determined by relating the total amount of radioactivity (pmol equivalent) to the protein concentration in each sample. To obtain the net covalent-binding (CVBnet), the average result of the “back-added” samples (CVBback) was subtracted from the average result of the incubated samples (CVBinc). For the determination of [^14C ]TAK-994 turnover in the incubation, part of the samples were analyzed by high-performance liquid chromatography with an online flow scintillation analyzer.
# Turnover = 1 − [percentage of TAK-994 relative to the total radioactivity at 2 hours] [percentage of TAK-994 relative to the total radioactivity at 0 hour]
# fcvb = CVB (pmol/mg protein) × [mean protein concentration (mg/well)] turnover × [substrate concentration (pmol/well)]
# CVB burden (mg) = D × fa × fm × fcvb
# D was set to 60, 180, 240, and 360 mg. Both fa and fm were set to a value of 1 (Thompson et al. 2012).
compound,measurement,setting,value
CC(C)(O)C(=O)N1CC[C@H](NS(C)(=O)=O)[C@@H]1Cc1cccc(-c2cc(F)cc(F)c2)c1F.CC(C)(O)C(=O)N1CC[C@H](NS(C)(=O)=O)[C@@H]1Cc1cccc(-c2cc(F)cc(F)c2)c1F.O.O.O [TAK-994],deaths or SAEs,[1]; TAK-994-1001,no deaths or SAEs were reported
same,subjects discontinued due to elevated ALT,[1]; of 121 participants,1
same,IC50,[2],> 100 µM
same,onset of earliest Hy's Law case,[3],50 days
same,IC50,[4],> 100 µM
same,cytotoxicity margin (Cmax/IC50),[4],> 100 ×
same,top test concentration (100 µM) relative to Cmax in patients,[4]; human,~100 fold
same,changes to mitochondrial respiration (media acidification and oxygen consumption rate),[5],no TAK-994-induced changes to mitochondrial respiration
same,Daily CVB burden,[6]; 90 mg BID,25.1 mg
same,Daily CVB burden,[6]; 180 mg BID,50.2 mg
same,CVB level,[6]; 2-h incubation of human hepatocytes with TAK-994 at 10 μM,389.2 pmol equivalent/mg protein
same,CVB burden,[6]; daily dose 60 mg (30 BID),2.94 mg
same,CVB burden,[6]; daily dose 180 mg (90 BID),8.82 mg
same,CVB burden,[6]; daily dose 240 mg (120 BID),11.8 mg
same,CVB burden,[6]; daily dose 360 mg (180 BID),17.6 mg
same,f CVB (fraction of metabolism leading to covalent binding),"[6]; human hepatocytes, 10 μM, 2 h",0.0490
